From ChEMBL document CHEMBL1201862, “PubChem BioAssay data set” (2004)
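Compound exposure: 48 hours, 5 concentrations, 96-well plates. Abbreviation: GI50, concentration required for 50% inhibition of growth.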 Calls of active or inactive are those of the source. Rule as the data show it: active = GI50 up to about 1.1 µM and inactive = higher.

Columns and labels:
Experiment in all cases: DTP human tumour cell line panel, 48 h
MOLT-4 = tested on: MOLT-4
M14 = tested on: M14
SW-620 = tested on: SW-620
A498 = tested on: A498
RXF 393 = tested on: RXF 393
MCF7 = tested on: MCF7
NCI-H522 = tested on: NCI-H522
SNB-75 = tested on: SNB-75
Malme-3M = tested on: Malme-3M
HOP-92 = tested on: HOP-92
HCT-116 = tested on: HCT-116
TK-10 = tested on: TK-10
SF-295 = tested on: SF-295
786-0 = tested on: 786-0
SNB-19 = tested on: SNB-19
UACC-62 = tested on: UACC-62
OVCAR-8 = tested on: OVCAR-8
BT-549 = tested on: BT-549
COLO 205 = tested on: COLO 205
SK-OV-3 = tested on: SK-OV-3

| Compound | GI50 (MOLT-4) | GI50 (M14) | GI50 (SW-620) | GI50 (A498) | GI50 (RXF 393) | GI50 (MCF7) | GI50 (NCI-H522) | GI50 (SNB-75) | GI50 (Malme-3M) | GI50 (HOP-92) | GI50 (HCT-116) | GI50 (TK-10) | GI50 (SF-295) | GI50 (786-0) | GI50 (SNB-19) | GI50 (UACC-62) | GI50 (OVCAR-8) | GI50 (BT-549) | GI50 (COLO 205) | GI50 (SK-OV-3) |
| --- | --- | --- | --- | --- | --- | --- | --- | --- | --- | --- | --- | --- | --- | --- | --- | --- | --- | --- | --- | --- |
| CCOC(=O)/C=C(/C(=O)OCC)n1cc(C)c(=O)n(/C(=C/C(=O)OCC)C(=O)OCC)c1=O | 1.32 µM (inactive) | 2.31 µM (inactive) | 1.22 µM (inactive) | 19.8 µM (inactive) | 1.8 µM (inactive) | 1.91 µM (inactive) | 0.49 µM (active) | 9.73 µM (inactive) | 1.85 µM (inactive) | 1.52 µM (inactive) | 1.91 µM (inactive) | 2.08 µM (inactive) | 18.7 µM (inactive) | 1.28 µM (inactive) | 19.8 µM (inactive) | 5.97 µM (inactive) | 5.35 µM (inactive) | 5.79 µM (inactive) | 1.32 µM (inactive) | 17.5 µM (inactive) |
| C=CCc1c(C)nc(C)nc1N/N=C/C=C/c1ccccc1 | 22.4 µM (inactive) | 31.2 µM (inactive) | 51.8 µM (inactive) | 25.9 µM (inactive) | 4.06 µM (inactive) | 23.6 µM (inactive) | 28.2 µM (inactive) | 21.9 µM (inactive) | 70 µM (inactive) | 40.5 µM (inactive) | 36.1 µM (inactive) | 33 µM (inactive) | 19.5 µM (inactive) | 65.2 µM (inactive) | 31.8 µM (inactive) | 20.6 µM (inactive) | 32.2 µM (inactive) | 23.8 µM (inactive) | 24.8 µM (inactive) | 55.5 µM (inactive) |
| CC(=O)c1c2c(cc3c1CC1(C3)Cc3ccc4c(c3C1=O)CCC4)CCC2 (stereo not given) | 22.3 µM (inactive) | 43 µM (inactive) | 32.7 µM (inactive) | > 100 µM (inactive) | 9.64 µM (inactive) | 16.7 µM (inactive) | 0.74 µM (active) | 16.9 µM (inactive) | 30.6 µM (inactive) | 8.85 µM (inactive) | 10.8 µM (inactive) | 11.1 µM (inactive) | 93.3 µM (inactive) | > 100 µM (inactive) | > 100 µM (inactive) | 44.5 µM (inactive) | 75.3 µM (inactive) | 62.4 µM (inactive) | 11 µM (inactive) | > 100 µM (inactive) |
| COc1ccc(/C=N\N(C)Cc2cccc3ccsc23)cc1 | 46.8 µM (inactive) | > 100 µM (inactive) | > 100 µM (inactive) | > 100 µM (inactive) | > 100 µM (inactive) | > 100 µM (inactive) | > 100 µM (inactive) | > 100 µM (inactive) | > 100 µM (inactive) | > 100 µM (inactive) | 72.4 µM (inactive) | > 100 µM (inactive) | > 100 µM (inactive) | > 100 µM (inactive) | > 100 µM (inactive) | > 100 µM (inactive) | > 100 µM (inactive) | > 100 µM (inactive) | > 100 µM (inactive) | > 100 µM (inactive) |
| CC(=O)O[C@H]1[C@H](OC(C)=O)[C@@H](CN=[N+]=[N-])OCO[C@@H]1CN=[N+]=[N-] | > 100 µM (inactive) | > 100 µM (inactive) | > 100 µM (inactive) | > 100 µM (inactive) | > 100 µM (inactive) | > 100 µM (inactive) | > 100 µM (inactive) | > 100 µM (inactive) | > 100 µM (inactive) | > 100 µM (inactive) | > 100 µM (inactive) | > 100 µM (inactive) | > 100 µM (inactive) | > 100 µM (inactive) | > 100 µM (inactive) | > 100 µM (inactive) | > 100 µM (inactive) | > 100 µM (inactive) | > 100 µM (inactive) | > 100 µM (inactive) |
| CC(CN1CC(=O)NC(=O)C1)N1CC(=O)NC(=O)C1 (stereo not given) [RAZOXANE] | 34.9 µM (inactive) | 217 µM (inactive) | 54.7 µM (inactive) | 157 µM (inactive) | 473 µM (inactive) | 33.2 µM (inactive) | 90.8 µM (inactive) | 306 µM (inactive) | 52.2 µM (inactive) | 211 µM (inactive) | 104 µM (inactive) | 168 µM (inactive) | 127 µM (inactive) | 98.9 µM (inactive) | 313 µM (inactive) | 340 µM (inactive) | 460 µM (inactive) | 385 µM (inactive) | 22.5 µM (inactive) | 299 µM (inactive) |
| CC[C@@]1(O)C(=O)OCc2c1cc1n(c2=O)Cc2c-1nc1ccccc1c2/C=N/NC(=O)C[N+](C)(C)C | 0.207 µM (active) | 1 µM (active) | 4.99 µM (inactive) | 7.76 µM (inactive) | 0.697 µM (active) | 0.192 µM (active) | 2.26 µM (inactive) | 0.525 µM (active) | 16.7 µM (inactive) | 3.68 µM (inactive) | 2.3 µM (inactive) | > 80.2 µM (inactive) | 0.56 µM (active) | 0.662 µM (active) | 0.75 µM (active) | 0.121 µM (active) | 1.98 µM (inactive) | 15.4 µM (inactive) | 62.4 µM (inactive) | 2.1 µM (inactive) |
